Measurements as given in ChEMBL document CHEMBL5303304, “EUbOPEN Chemogenomics Library - IncuCyte” (2023).

How the values were obtained:
Assay type in all cases: toxicity, cell-based
HEK-293T = assay: Incucyte cell viability with HEK293T; details: human, 10 µM, compound concentration 10 uM
Fibroblast = assay: Incucyte cell viability with human fibroblast; details: 10 µM, compound concentration 10 uM
U2OS = assay: Incucyte cell viability with U2OS; details: human, 10 µM, compound concentration 10 uM
Also: unitless GR value; below 1 slowed growth and below 0 cell loss.

| SMILES | Growth Rate (HEK-293T; 0 h, replicate number 2) | Growth Rate (HEK-293T; 12 h, replicate number 2) | Growth Rate (HEK-293T; 18 h, replicate number 1) | Growth Rate (HEK-293T; 18 h, replicate number 2) | Growth Rate (HEK-293T; 24 h, replicate number 1) | Growth Rate (HEK-293T; 24 h, replicate number 2) | Growth Rate (Fibroblast; 6 h, replicate number 1) | Growth Rate (Fibroblast; 12 h, replicate number 2) | Growth Rate (Fibroblast; 24 h, replicate number 2) | Growth Rate (U2OS; 6 h, replicate number 1) | Growth Rate (U2OS; 6 h, replicate number 2) | Growth Rate (U2OS; 12 h, replicate number 1) | Growth Rate (U2OS; 12 h, replicate number 2) | Growth Rate (U2OS; 18 h, replicate number 1) | Growth Rate (U2OS; 18 h, replicate number 2) | Growth Rate (U2OS; 24 h, replicate number 2) | Growth Rate (HEK-293T; 6 h, replicate number 2) | Growth Rate (Fibroblast; 18 h, replicate number 1) | Growth Rate (Fibroblast; 18 h, replicate number 2) | Growth Rate (U2OS; 0 h, replicate number 1) | other results |
| --- | --- | --- | --- | --- | --- | --- | --- | --- | --- | --- | --- | --- | --- | --- | --- | --- | --- | --- | --- | --- | --- |
| Cc1cc(OC2CCS(=O)(=O)CC2)cc(C)c1-c1cccc(COc2ccc(C(=O)O)c(F)c2)c1 | 0.65 | 0.96 | 0.96 | 0.88 | 0.9 | 0.84 | 0.86 | 0.57 | 0.92 | 0.56 | 0.65 | 0.61 | 0.49 | 0.85 | 0.77 | 0.75 |  |  |  |  | Growth Rate (Fibroblast; 0 h, replicate number 1): -0.85; Growth Rate (U2OS; 0 h, replicate number 2): 0.93; Growth Rate (U2OS; 24 h, replicate number 1): 0.98 |
| Cc1n[nH]c2ncc(C(=O)N3CCC[C@H]3c3ccc(Cl)cc3)cc12 |  | 0.96 |  | 1 | 1 | 0.89 | 0.75 | 0.76 | 0.92 | 0.34 |  | 0.67 |  | 0.94 |  |  | 0.58 | 0.66 | 0.99 |  | Growth Rate (HEK-293T; 0 h, replicate number 1): 0.29; Growth Rate (Fibroblast; 24 h, replicate number 1): 0.73; Growth Rate (U2OS; 24 h, replicate number 1): 0.91 |
| COc1ccc(CC[C@@H](OC(=O)[C@@H]2CCCCN2C(=O)[C@H](c2cc(OC)c(OC)c(OC)c2)C2CCCCC2)c2cccc(OCCN3CCOCC3)c2)cc1OC | -0.44 | 0.38 | 0.94 | 0.26 | 0.27 | 0.24 |  | 0.99 |  |  | 0.91 |  | 0.8 |  | 0.78 | 0.73 |  |  |  | -1 | Growth Rate (Fibroblast; 0 h, replicate number 1): -1; Growth Rate (Fibroblast; 24 h, replicate number 1): 0.97; Growth Rate (U2OS; 0 h, replicate number 2): -0.99 |
| O=C(O)CCC/C=C\C[C@@H]1[C@@H](/C=C/[C@@H](O)COc2cccc(C(F)(F)F)c2)[C@H](O)C[C@@H]1O [FLUPROSTENOL] | 0.68 |  |  |  |  |  | 0.15 | 0.09 | 0.44 | 0.86 | 0.95 |  | 0.91 |  | 0.9 | 0.91 |  | 0.89 | 0.18 | 0.61 | Growth Rate (HEK-293T; 0 h, replicate number 1): -0.11; Growth Rate (Fibroblast; 6 h, replicate number 2): -0.58; Growth Rate (Fibroblast; 12 h, replicate number 1): 0.5; Growth Rate (Fibroblast; 24 h, replicate number 1): 0.8 |
| O=C(O)c1cc(-c2ccccc2)ccc1O |  |  |  |  |  | 0.94 |  | 0.44 | 0.79 | 0.63 |  | 0.69 |  | 0.88 |  |  |  | 0.96 | 0.67 | -0.47 | Growth Rate (HEK-293T; 0 h, replicate number 1): -0.37; Growth Rate (Fibroblast; 6 h, replicate number 2): -0.01; Growth Rate (Fibroblast; 12 h, replicate number 1): 0.95; Growth Rate (U2OS; 0 h, replicate number 2): -0.88; Growth Rate (U2OS; 24 h, replicate number 1): 0.87 |
| CC(C)S(=O)(=O)c1ccccc1Nc1nc(N[C@@H]2CCCN(CCCCCCCNC(=O)COc3cccc4c3C(=O)N(C3CCC(=O)N(C)C3=O)C4=O)C2)ncc1Cl (stereo partly specified) | -0.99 | -0.61 | -0.33 | -0.5 | -0.27 | -0.39 | 0.41 | -0.21 | -0.36 | 0.42 | 0.49 | 0.11 | 0.08 | -0.06 | -0.14 | -0.2 | -0.7 | -0.33 | -0.36 | -1 | Growth Rate (HEK-293T; 0 h, replicate number 1): -1; Growth Rate (HEK-293T; 6 h, replicate number 1): -0.52; Growth Rate (HEK-293T; 12 h, replicate number 1): -0.4; Growth Rate (Fibroblast; 0 h, replicate number 1): -1; Growth Rate (Fibroblast; 6 h, replicate number 2): 0.48; Growth Rate (Fibroblast; 12 h, replicate number 1): -0.14; Growth Rate (Fibroblast; 24 h, replicate number 1): -0.23; Growth Rate (U2OS; 24 h, replicate number 1): -0.24 |
| CC1CCN(C(=O)[C@@H](CCn2cccc2C#N)NS(=O)(=O)c2cccc3[nH]ccc23)CC1 |  |  |  |  |  |  |  |  |  | 0.55 | 0.85 |  | 0.81 |  |  |  | 0.99 |  | 0.96 | 0.26 | Growth Rate (Fibroblast; 0 h, replicate number 2): -0.84; Growth Rate (U2OS; 24 h, replicate number 1): 0.86 |
| Cc1nn(C)c(COc2ccc(N3CCN(S(=O)(=O)N(C)C)CC3)cc2)c1-c1cccc2c(CCCOc3cccc4ccccc34)c(C(=O)O)n(CCN3CCOCC3)c12 |  |  | 0.93 |  |  |  | 0.53 |  |  | 0.3 | 0.93 | 0.85 | 0.97 | 0.86 | 0.92 | 0.98 | 0.84 | 0.58 |  | 0.4 | Growth Rate (HEK-293T; 0 h, replicate number 1): 0.38; Growth Rate (HEK-293T; 6 h, replicate number 1): 0.99; Growth Rate (HEK-293T; 12 h, replicate number 1): 0.93; Growth Rate (Fibroblast; 24 h, replicate number 1): 0.76; Growth Rate (U2OS; 24 h, replicate number 1): 0.86 |
| CC(C)(C#Cc1ccc(NC(=O)COc2ccccc2C(=O)c2ccccc2)c(Cl)c1)C(=O)O [BI 2439] |  | 0.42 | 0.78 | 0.62 | 0.79 | 0.69 | 0.59 | 0.66 |  | 1 | 0.76 |  | 0.68 |  | 0.81 | 0.76 | 0.41 | 0.92 |  |  | Growth Rate (HEK-293T; 6 h, replicate number 1): 0.72; Growth Rate (HEK-293T; 12 h, replicate number 1): 0.81; Growth Rate (Fibroblast; 0 h, replicate number 2): -0.64; Growth Rate (Fibroblast; 24 h, replicate number 1): 0.89; Growth Rate (U2OS; 0 h, replicate number 2): -0.27 |
| CN1CCN(C(=O)c2ccc(N(C)c3ncc(C(F)(F)F)c(N[C@@H]4CCC[C@@H]4C(N)=O)n3)cc2)CC1.Cl | 0.56 |  |  |  |  |  |  | -0.02 | 0.9 |  |  |  |  |  |  | 1 | 0.56 |  | 0.35 |  | Growth Rate (HEK-293T; 6 h, replicate number 1): 1; Growth Rate (HEK-293T; 12 h, replicate number 1): 0.91; Growth Rate (Fibroblast; 6 h, replicate number 2): -0.99 |
| Cc1nnc2n1-c1sc(CCC(=O)N3CCOCC3)cc1C(c1ccccc1Cl)=NC2 [APAFANT] | -0.56 |  |  |  |  |  |  |  |  | 0.58 | 0.99 | 0.67 | 0.76 | 0.88 |  | 0.98 |  | 0.73 |  | 0.87 | Growth Rate (HEK-293T; 12 h, replicate number 1): 0.78; Growth Rate (Fibroblast; 0 h, replicate number 2): -0.81; Growth Rate (Fibroblast; 24 h, replicate number 1): 0.8; Growth Rate (U2OS; 24 h, replicate number 1): 0.88 |
| CCOC(=O)C1Cc2ccccc2CN1C(=O)c1ccc(SC)s1 (stereo unspecified) | -0.82 | 0.49 | 0.47 | 0.5 | 0.41 | 0.5 |  | 0.1 | 0.67 | 0.96 | 0.87 |  |  |  | 0.98 | 0.88 | 0.28 | 0.58 | 0.63 |  | Growth Rate (HEK-293T; 6 h, replicate number 1): 0.05; Growth Rate (HEK-293T; 12 h, replicate number 1): 0.12; Growth Rate (Fibroblast; 6 h, replicate number 2): 0.06; Growth Rate (Fibroblast; 12 h, replicate number 1): 0.66; Growth Rate (Fibroblast; 24 h, replicate number 1): 0.86 |
| Cc1c(C(=O)NCCCN(C)C)sc2ncnc(Nc3ccc(F)cc3OC(C)CF)c12 (stereo unspecified) |  | 0.14 | -0.13 | 0.14 | 0.07 | 0.16 | -1 |  | 0.55 |  |  |  |  |  |  |  | 0.2 |  | 0.93 |  | Growth Rate (HEK-293T; 6 h, replicate number 1): -0.52; Growth Rate (HEK-293T; 12 h, replicate number 1): -0.29; Growth Rate (U2OS; 0 h, replicate number 2): 0.69 |
| COC[C@@H](CC(C)C)NC1=N/C(=C\c2ccc3ncsc3c2)C(=O)N1C | 0.12 | 0.3 | 0.35 | 0.69 | 0.68 | 0.6 | -0.97 | 0.07 | 0.51 |  |  | 0.73 | 0.64 | 0.43 | 0.37 | 0.28 | 0.4 | 0.63 | 0.3 | 0.04 | Growth Rate (HEK-293T; 0 h, replicate number 1): 0.16; Growth Rate (HEK-293T; 6 h, replicate number 1): 0.37; Growth Rate (HEK-293T; 12 h, replicate number 1): -0.18; Growth Rate (Fibroblast; 6 h, replicate number 2): 0.03; Growth Rate (U2OS; 24 h, replicate number 1): 0.37 |
| Cc1nccn1CC1CCc2c(c3ccccc3n2C)C1=O.Cl (stereo unspecified) |  | 0.75 |  | 0.79 |  | 0.87 |  |  | 0.9 | 0.77 | 0.44 | 0.96 |  | 0.91 | 0.88 |  | 0.6 |  |  | -0.28 | Growth Rate (HEK-293T; 6 h, replicate number 1): 0.82 |
